Assay results published in PubChem BioAssay (NCI).
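Dose response: 5 concentrations. Exposure: 48 h. Format: 96-well plates. Endpoint: linear interpolation; highest concentration if not reached. GI50 = concentration required for 50% inhibition of growth. TGI: concentration producing complete growth inhibition.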

Legend:
Assay in all cases: NCI tumour cell line growth inhibition, 48 h
HCT-15 colon = test system: HCT-15 colon
MDA-MB-435 = test system: MDA-MB-435
CCRF-CEM leukemia = test system: CCRF-CEM leukemia
OVCAR-3 ovarian = test system: OVCAR-3 ovarian
SNB-19 CNS = test system: SNB-19 CNS
SNB-75 CNS = test system: SNB-75 CNS
HCT-116 colon = test system: HCT-116 colon
NCI-H522 lung = test system: NCI-H522 lung
NCI/ADR-RES ovarian = test system: NCI/ADR-RES ovarian
OVCAR-8 ovarian = test system: OVCAR-8 ovarian
SN12C renal = test system: SN12C renal
MDA-MB-231 breast = test system: MDA-MB-231 breast
OVCAR-4 ovarian = test system: OVCAR-4 ovarian
PC-3 prostate = test system: PC-3 prostate
SK-MEL-28 melanoma = test system: SK-MEL-28 melanoma
RXF 393 renal = test system: RXF 393 renal
SK-MEL-5 melanoma = test system: SK-MEL-5 melanoma
MCF7 breast = test system: MCF7 breast
HL-60(TB) leukemia = test system: HL-60(TB) leukemia
T-47D breast = test system: T-47D breast
HOP-92 NSCLC = test system: HOP-92 NSCLC
SF-268 CNS = test system: SF-268 CNS
SK-MEL-2 melanoma = test system: SK-MEL-2 melanoma
HS 578T breast = test system: HS 578T breast
ACHN renal = test system: ACHN renal
A498 renal = test system: A498 renal
SF-539 CNS = test system: SF-539 CNS
M14 melanoma = test system: M14 melanoma
SW-620 colon = test system: SW-620 colon
CAKI-1 renal = test system: CAKI-1 renal
HT29 colon = test system: HT29 colon
MOLT-4 leukemia = test system: MOLT-4 leukemia
A549 NSCLC = test system: A549 NSCLC
SF-295 CNS = test system: SF-295 CNS
K-562 leukemia = test system: K-562 leukemia
U251 CNS = test system: U251 CNS
MALME-3M melanoma = test system: MALME-3M melanoma
NCI-H226 lung = test system: NCI-H226 lung
UACC-62 melanoma = test system: UACC-62 melanoma
NCI-H460 lung = test system: NCI-H460 lung
IGROV1 ovarian = test system: IGROV1 ovarian
HCC-2998 colon = test system: HCC-2998 colon
COLO 205 colon = test system: COLO 205 colon
SR leukemia = test system: SR leukemia
786-0 renal = test system: 786-0 renal
TK-10 renal = test system: TK-10 renal
EKVX NSCLC = test system: EKVX NSCLC
UACC-257 melanoma = test system: UACC-257 melanoma
LOX IMVI melanoma = test system: LOX IMVI melanoma
KM12 colon = test system: KM12 colon
NCI-H23 lung = test system: NCI-H23 lung
RPMI-8226 leukemia = test system: RPMI-8226 leukemia
HOP-62 NSCLC = test system: HOP-62 NSCLC
BT-549 breast = test system: BT-549 breast
UO-31 renal = test system: UO-31 renal
OVCAR-5 ovarian = test system: OVCAR-5 ovarian
SK-OV-3 ovarian = test system: SK-OV-3 ovarian
DU-145 prostate = test system: DU-145 prostate

What does the source list for `NC(=O)c1c(NC(=O)c2ccc(C(F)(F)F)cc2)sc2c1CCC(=O)C2`?
GI50 (HCT-15 colon): 0.699 µM; TGI (HCT-15 colon): 2.81 µM; GI50 (MDA-MB-435): 1.95 µM; TGI (MDA-MB-435): 4.75 µM; GI50 (CCRF-CEM leukemia): 0.266 µM; TGI (CCRF-CEM leukemia): 14 µM; GI50 (OVCAR-3 ovarian): 0.575 µM; TGI (OVCAR-3 ovarian): 2.47 µM; GI50 (SNB-19 CNS): 1.31 µM; TGI (SNB-19 CNS): 9.92 µM; GI50 (SNB-75 CNS): 1.79 µM; TGI (SNB-75 CNS): 5.95 µM; GI50 (HCT-116 colon): 0.369 µM; TGI (HCT-116 colon): 3.55 µM; GI50 (NCI-H522 lung): 0.613 µM; TGI (NCI-H522 lung): 2.39 µM; GI50 (NCI/ADR-RES ovarian): 1.48 µM; TGI (NCI/ADR-RES ovarian): 7.49 µM; GI50 (OVCAR-8 ovarian): 1.85 µM; TGI (OVCAR-8 ovarian): 25 µM; GI50 (SN12C renal): 2.23 µM; TGI (SN12C renal): 13.2 µM; GI50 (MDA-MB-231 breast): 1.02 µM; TGI (MDA-MB-231 breast): 3.98 µM; GI50 (OVCAR-4 ovarian): 1.94 µM; TGI (OVCAR-4 ovarian): 4.83 µM; GI50 (PC-3 prostate): 0.316 µM; TGI (PC-3 prostate): 1.86 µM; GI50 (SK-MEL-28 melanoma): 1.14 µM; TGI (SK-MEL-28 melanoma): 2.82 µM; GI50 (RXF 393 renal): 0.874 µM; TGI (RXF 393 renal): 4.24 µM; GI50 (SK-MEL-5 melanoma): 1.73 µM; TGI (SK-MEL-5 melanoma): 3.32 µM; GI50 (MCF7 breast): 1.37 µM; TGI (MCF7 breast): 10.1 µM; GI50 (HL-60(TB) leukemia): 1.35 µM; TGI (HL-60(TB) leukemia): 8.06 µM; GI50 (T-47D breast): 0.545 µM; TGI (T-47D breast): 3.34 µM; GI50 (HOP-92 NSCLC): 0.726 µM; TGI (HOP-92 NSCLC): 3.47 µM; GI50 (SF-268 CNS): 1.48 µM; TGI (SF-268 CNS): 14.4 µM; GI50 (SK-MEL-2 melanoma): 3.21 µM; TGI (SK-MEL-2 melanoma): 11.1 µM; GI50 (HS 578T breast): 1.89 µM; TGI (HS 578T breast): 19.3 µM; GI50 (ACHN renal): 1.25 µM; TGI (ACHN renal): 2.53 µM; GI50 (A498 renal): 5.06 µM; TGI (A498 renal): 19.2 µM; GI50 (SF-539 CNS): 0.5 µM; TGI (SF-539 CNS): 1.81 µM; GI50 (M14 melanoma): 1.86 µM; TGI (M14 melanoma): 4.56 µM; GI50 (SW-620 colon): 0.379 µM; TGI (SW-620 colon): 1.96 µM; GI50 (CAKI-1 renal): 0.75 µM; TGI (CAKI-1 renal): 2.43 µM; GI50 (HT29 colon): 1.07 µM; TGI (HT29 colon): 5.26 µM; GI50 (MOLT-4 leukemia): 1.07 µM; TGI (MOLT-4 leukemia): 8.32 µM; GI50 (A549 NSCLC): 3.12 µM; TGI (A549 NSCLC): 15.4 µM; GI50 (SF-295 CNS): 2.17 µM; TGI (SF-295 CNS): 6.01 µM; GI50 (K-562 leukemia): 0.3 µM; TGI (K-562 leukemia): > 41.3 µM; GI50 (U251 CNS): 0.426 µM; TGI (U251 CNS): 4.67 µM; GI50 (MALME-3M melanoma): 1.08 µM; TGI (MALME-3M melanoma): 3.1 µM; GI50 (NCI-H226 lung): 2.04 µM; TGI (NCI-H226 lung): 4.98 µM; GI50 (UACC-62 melanoma): 0.758 µM; TGI (UACC-62 melanoma): 2.35 µM; GI50 (NCI-H460 lung): 3.35 µM; TGI (NCI-H460 lung): 12.8 µM; GI50 (IGROV1 ovarian): 1.23 µM; TGI (IGROV1 ovarian): 4.35 µM; GI50 (HCC-2998 colon): 2.49 µM; TGI (HCC-2998 colon): 6.95 µM; GI50 (COLO 205 colon): 1.55 µM; TGI (COLO 205 colon): 3.93 µM; GI50 (SR leukemia): 0.393 µM; TGI (SR leukemia): > 100 µM; GI50 (786-0 renal): 3.91 µM; TGI (786-0 renal): 32 µM; GI50 (TK-10 renal): 1.66 µM; TGI (TK-10 renal): 11.2 µM; GI50 (EKVX NSCLC): 2.42 µM; TGI (EKVX NSCLC): 8.58 µM; GI50 (UACC-257 melanoma): 1.98 µM; TGI (UACC-257 melanoma): 5.9 µM; GI50 (LOX IMVI melanoma): 0.391 µM; TGI (LOX IMVI melanoma): 2.24 µM; GI50 (KM12 colon): 1.72 µM; TGI (KM12 colon): 7.18 µM; GI50 (NCI-H23 lung): 0.887 µM; TGI (NCI-H23 lung): 9.09 µM; GI50 (RPMI-8226 leukemia): 0.279 µM; TGI (RPMI-8226 leukemia): 1.26 µM; GI50 (HOP-62 NSCLC): 3.55 µM; TGI (HOP-62 NSCLC): 17.6 µM; GI50 (BT-549 breast): 0.569 µM; TGI (BT-549 breast): 7.21 µM; GI50 (UO-31 renal): 0.645 µM; TGI (UO-31 renal): 1.9 µM; GI50 (OVCAR-5 ovarian): 1.89 µM; TGI (OVCAR-5 ovarian): 6.08 µM; GI50 (SK-OV-3 ovarian): 3.03 µM; TGI (SK-OV-3 ovarian): > 28.6 µM; GI50 (DU-145 prostate): 4.81 µM; TGI (DU-145 prostate): > 100 µM
